In paper PMC5218480 (PLoS ONE, 2017):

System: MV-4-11 cells
Test: Gene expression microarray analysis (Affymetrix PrimeView) and GSEA
Assay type: cell-based, human
Set-up: RFU PODN (11730768_x_at) / Fold change /veh PODN (11730768_x_at) / RFU LINC00158 (11744669_a_at) / Fold change /veh LINC00158 (11744669_a_at) / RFU DUSP10 (11751237_a_at) / Fold change /veh DUSP10 (11751237_a_at) / RFU ID3 (11757404_x_at) / Fold change /veh ID3 (11757404_x_at) / RFU PLEKHG5 (11737974_s_at) / Fold change /veh PLEKHG5 (11737974_s_at) / RFU LRRC4B (11730491_at) / Fold change /veh LRRC4B (11730491_at) / RFU GIMAP4 (11747438_a_at) / Fold change /veh GIMAP4 (11747438_a_at) / RFU KRT8 (11758183_x_at) / Fold change /veh KRT8 (11758183_x_at) / RFU CNN1 (11734310_a_at) / Fold change /veh CNN1 (11734310_a_at) / RFU VPS37D (11726825_at) / Fold change /veh VPS37D (11726825_at) / RFU C10orf10 (11716522_x_at) / Fold change /veh C10orf10 (11716522_x_at) / RFU KIR2DL2 /// KIR2DL4 /// KIR2DL5A /// KIR2DL5B /// KIR2DS1 /// KIR2DS2 /// KIR2DS3 /// KIR2DS4 /// KIR3DL3 /// KIR3DL3 /// KIR3DS1 (11738374_at) / Fold change /veh KIR2DL2 /// KIR2DL4 /// KIR2DL5A /// KIR2DL5B /// KIR2DS1 /// KIR2DS2 /// KIR2DS3 /// KIR2DS4 /// KIR3DL3 /// KIR3DL3 /// KIR3DS1 (11738374_at) / RFU C1QL1 (11718748_at) / Fold change /veh C1QL1 (11718748_at) / RFU TMPRSS4 (11747572_a_at) / Fold change /veh TMPRSS4 (11747572_a_at) / RFU HAMP (11756126_x_at) / Fold change /veh HAMP (11756126_x_at) / RFU RNFT2 (11725882_a_at) / Fold change /veh RNFT2 (11725882_a_at) / RFU NR4A2 (11747474_a_at) / Fold change /veh NR4A2 (11747474_a_at) / RFU ABCC12 (11746883_a_at) / Fold change /veh ABCC12 (11746883_a_at) / RFU TMEM136 (11760407_x_at) / Fold change /veh TMEM136 (11760407_x_at) / RFU CLDN22 /// WWC2 (11732394_at) / Fold change /veh CLDN22 /// WWC2 (11732394_at) / RFU HLA-DPB1 (11760878_x_at) / Fold change /veh HLA-DPB1 (11760878_x_at) / RFU SPINT1 (11716480_a_at) / Fold change /veh SPINT1 (11716480_a_at) / RFU GAP43 (11754022_s_at) / Fold change /veh GAP43 (11754022_s_at) / RFU A4GNT (11735810_at) / Fold change /veh A4GNT (11735810_at) / RFU PRB3 (11715151_x_at) / Fold change /veh PRB3 (11715151_x_at) / RFU TUBB4B (11761932_at) / Fold change /veh TUBB4B (11761932_at) / RFU CAPN14 (11732068_a_at) / Fold change /veh CAPN14 (11732068_a_at) / RFU TMCC2 (11721928_a_at) / Fold change /veh TMCC2 (11721928_a_at) / RFU IRGQ (11745062_a_at) / Fold change /veh IRGQ (11745062_a_at) / RFU FAM174B (11720279_a_at) / Fold change /veh FAM174B (11720279_a_at) / RFU TMPRSS4 (11748680_a_at) / Fold change /veh TMPRSS4 (11748680_a_at) / RFU FAM212B (11763350_a_at) / Fold change /veh FAM212B (11763350_a_at) / RFU PLEKHG5 (11743358_a_at) / Fold change /veh PLEKHG5 (11743358_a_at) / RFU ZSCAN30 (11745921_a_at) / Fold change /veh ZSCAN30 (11745921_a_at) / RFU CMKLR1 (11741424_a_at) / Fold change /veh CMKLR1 (11741424_a_at) / RFU LOC101060620 /// MAPK8IP1 (11723275_at) / Fold change /veh LOC101060620 /// MAPK8IP1 (11723275_at) / RFU SPTSSB (11747773_x_at) / Fold change /veh SPTSSB (11747773_x_at) / RFU PRSS12 (11739890_at) / Fold change /veh PRSS12 (11739890_at) / RFU BIN1 (11741810_x_at) / Fold change /veh BIN1 (11741810_x_at) / RFU WNT11 (11732464_a_at) / Fold change /veh WNT11 (11732464_a_at) / RFU C10orf10 (11716521_a_at) / Fold change /veh C10orf10 (11716521_a_at) / RFU C5orf56 (11738089_at) / Fold change /veh C5orf56 (11738089_at) / RFU CYB561 (11721691_x_at) / Fold change /veh CYB561 (11721691_x_at) / RFU ANKRD19P (11752326_a_at) / Fold change /veh ANKRD19P (11752326_a_at) / RFU OR2T12 /// OR2T33 /// OR2T8 (11738714_s_at) / Fold change /veh OR2T12 /// OR2T33 /// OR2T8 (11738714_s_at) / RFU VCAN (11748164_a_at) / Fold change /veh VCAN (11748164_a_at) / RFU JSRP1 (11732532_at) / Fold change /veh JSRP1 (11732532_at) / RFU KRTAP10-11 (11738290_x_at) / Fold change /veh KRTAP10-11 (11738290_x_at) / RFU MYO3A (11730013_a_at) / Fold change /veh MYO3A (11730013_a_at) / RFU EBF3 (11725865_a_at) / Fold change /veh EBF3 (11725865_a_at) / RFU CAMK2N1 (11719241_x_at) / Fold change /veh CAMK2N1 (11719241_x_at) / RFU C5orf56 (11738088_a_at) / Fold change /veh C5orf56 (11738088_a_at) / RFU OLFML3 (11715873_a_at) / Fold change /veh OLFML3 (11715873_a_at) / RFU LOC100653217 /// NTM (11731650_a_at) / Fold change /veh LOC100653217 /// NTM (11731650_a_at) / RFU MAPK11 (11762145_a_at) / Fold change /veh MAPK11 (11762145_a_at) / RFU FIZ1 (11724087_x_at) / Fold change /veh FIZ1 (11724087_x_at) / RFU OASL (11726364_x_at) / Fold change /veh OASL (11726364_x_at) / RFU SOX15 (11748057_x_at) / Fold change /veh SOX15 (11748057_x_at) / RFU CD79A (11719716_a_at) / Fold change /veh CD79A (11719716_a_at) / RFU HIST1H1D (11736915_at) / Fold change /veh HIST1H1D (11736915_at) / RFU CASKIN2 (11723855_a_at) / Fold change /veh CASKIN2 (11723855_a_at) / RFU LOC730098 (11760151_x_at) / Fold change /veh LOC730098 (11760151_x_at) / RFU OR4N2 (11742367_at) / Fold change /veh OR4N2 (11742367_at) / RFU PRRT2 (11749266_a_at) / Fold change /veh PRRT2 (11749266_a_at) / RFU SNX32 (11753110_a_at) / Fold change /veh SNX32 (11753110_a_at) / RFU CDHR5 (11726645_a_at) / Fold change /veh CDHR5 (11726645_a_at) / RFU RCAN1 (11760418_a_at) / Fold change /veh RCAN1 (11760418_a_at) / RFU FAM167A (11723789_a_at) / Fold change /veh FAM167A (11723789_a_at) / RFU FAM26E (11764081_at) / Fold change /veh FAM26E (11764081_at) / RFU ISYNA1 (11749810_s_at) / Fold change /veh ISYNA1 (11749810_s_at) / RFU ACY1 (11761880_at) / Fold change /veh ACY1 (11761880_at) / RFU 11764098_at / Fold change /veh 11764098_at / RFU SAMD14 (11745864_x_at) / Fold change /veh SAMD14 (11745864_x_at) / RFU NPB (11741838_a_at) / Fold change /veh NPB (11741838_a_at) / RFU TMPRSS6 (11731388_a_at) / Fold change /veh TMPRSS6 (11731388_a_at) / RFU KRTAP10-2 (11738614_at) / Fold change /veh KRTAP10-2 (11738614_at) / RFU ARHGAP8 /// PRR5-ARHGAP8 (11727945_x_at) / Fold change /veh ARHGAP8 /// PRR5-ARHGAP8 (11727945_x_at) / RFU KRTAP5-7 /// NADSYN1 (11734609_at) / Fold change /veh KRTAP5-7 /// NADSYN1 (11734609_at) / RFU RASL12 (11751679_a_at) / Fold change /veh RASL12 (11751679_a_at) / RFU CDKN2B (11736163_a_at) / Fold change /veh CDKN2B (11736163_a_at) / RFU PRF1 (11729649_at) / Fold change /veh PRF1 (11729649_at) / RFU, ZNF638 /// ZNF638-IT1 / Fold change vs veh, ZNF638 /// ZNF638-IT1 / RFU, PANK3 / Fold change vs veh, PANK3 / RFU, SH3YL1 / Fold change vs veh, SH3YL1 / RFU, ZEB2 / Fold change vs veh, ZEB2 / RFU, NRIP1 / Fold change vs veh, NRIP1 / RFU, PTTG1IP / Fold change vs veh, PTTG1IP / RFU, CAPN2 / Fold change vs veh, CAPN2 / RFU, MED14 / Fold change vs veh, MED14 / RFU, SNORA58 / Fold change vs veh, SNORA58 / RFU, C1orf63 / Fold change vs veh, C1orf63 / RFU, LRRFIP1 / Fold change vs veh, LRRFIP1 / RFU, NDUFAF7 / Fold change vs veh, NDUFAF7 / RFU, SLC12A2 / Fold change vs veh, SLC12A2 / RFU, IBTK / Fold change vs veh, IBTK / RFU, ESF1 / Fold change vs veh, ESF1 / Fold change vs veh, TMEM50B / RFU, TAOK1 / Fold change vs veh, TAOK1 / RFU, ACBD3 / Fold change vs veh, ACBD3 / RFU, TMA16 / Fold change vs veh, TMA16 / RFU, RWDD3 / Fold change vs veh, RWDD3 / RFU, BCAT1 / Fold change vs veh, BCAT1 / RFU, EDEM3 / Fold change vs veh, EDEM3 / RFU, TMEM33 / Fold change vs veh, TMEM33 / RFU, WDR75 / Fold change vs veh, WDR75 / RFU, AHCTF1 / Fold change vs veh, AHCTF1 / RFU, TFRC / Fold change vs veh, TFRC / RFU, ZDHHC17 / Fold change vs veh, ZDHHC17 / RFU, NOM1 / Fold change vs veh, NOM1 / RFU, ARL8B / Fold change vs veh, ARL8B / RFU, ZBTB11 / Fold change vs veh, ZBTB11 / RFU, TAMM41 / Fold change vs veh, TAMM41 / RFU, KIAA1704 /// LOC100996395 / Fold change vs veh, KIAA1704 /// LOC100996395 / RFU, ING1 / Fold change vs veh, ING1 / RFU, TRMT61B / Fold change vs veh, TRMT61B / RFU, FUBP3 / Fold change vs veh, FUBP3 / RFU, TP53 / Fold change vs veh, TP53 / RFU, TNKS2 / Fold change vs veh, TNKS2 / RFU, ZFP14 / Fold change vs veh, ZFP14 / RFU, ACTR2 / Fold change vs veh, ACTR2 / RFU, PPP3R1 / Fold change vs veh, PPP3R1 / RFU, PIK3R1 / Fold change vs veh, PIK3R1 / RFU, HNRNPA1 / Fold change vs veh, HNRNPA1 / RFU, RNF170 / Fold change vs veh, RNF170 / RFU, ZNF28 / Fold change vs veh, ZNF28 / RFU, RNGTT / Fold change vs veh, RNGTT / RFU, OGT / Fold change vs veh, OGT / RFU, BRD1 / Fold change vs veh, BRD1 / RFU, MARS / Fold change vs veh, MARS / RFU, ZNF655 / Fold change vs veh, ZNF655 / RFU, FAHD1 / Fold change vs veh, FAHD1 / RFU, BDP1 / Fold change vs veh, BDP1 / RFU, LRRCC1 / Fold change vs veh, LRRCC1 / RFU, ARID1A / Fold change vs veh, ARID1A / RFU, ZNF146 / Fold change vs veh, ZNF146 / RFU, ZNF330 / Fold change vs veh, ZNF330 / RFU, GPN3 / Fold change vs veh, GPN3 / RFU, C9orf123 / Fold change vs veh, C9orf123 / RFU, N4BP2L2 / Fold change vs veh, N4BP2L2 / RFU, ARFIP1 / Fold change vs veh, ARFIP1 / RFU, FAM179B / Fold change vs veh, FAM179B / RFU, BCL10 / Fold change vs veh, BCL10 / RFU, UHRF1BP1L / Fold change vs veh, UHRF1BP1L / RFU, BET1 / Fold change vs veh, BET1 / RFU, CNOT2 / Fold change vs veh, CNOT2 / RFU, ZNF268 / Fold change vs veh, ZNF268 / Fold change vs veh, ZNF507 / RFU, DGCR2 / Fold change vs veh, DGCR2 / RFU, WDSUB1 / Fold change vs veh, WDSUB1 / Fold change vs veh, HSP90B1 /// MIR3652 / RFU, ADSS / Fold change vs veh, ADSS / RFU, GK / Fold change vs veh, GK / RFU, ZNF148 / Fold change vs veh, ZNF148 / RFU, TAF9 / Fold change vs veh, TAF9 / RFU, SLC1A5 / Fold change vs veh, SLC1A5 / RFU, SLMO2 / Fold change vs veh, SLMO2 / RFU, ABCC4 / Fold change vs veh, ABCC4 / RFU, LOC101060439 /// RAP1B / Fold change vs veh, LOC101060439 /// RAP1B / RFU, RFX7 / Fold change vs veh, RFX7 / RFU, GTPBP10 / Fold change vs veh, GTPBP10 / RFU, CNEP1R1 / Fold change vs veh, CNEP1R1 / RFU, BIVM-ERCC5 /// ERCC5 / Fold change vs veh, BIVM-ERCC5 /// ERCC5 / RFU, ILF3 / Fold change vs veh, ILF3 / RFU 11762660_at / Fold change /veh 11762660_at / RFU VCAN (11757783_s_at) / Fold change /veh VCAN (11757783_s_at) / RFU DDX43 (11728927_at) / Fold change /veh DDX43 (11728927_at) / RFU KRT8 (11758188_x_at) / Fold change /veh KRT8 (11758188_x_at) / RFU NKD1 (11759106_at) / Fold change /veh NKD1 (11759106_at) / RFU SRD5A1 (11742802_a_at) / Fold change /veh SRD5A1 (11742802_a_at) / RFU TPSAB1 /// TPSB2 (11721975_s_at) / Fold change /veh TPSAB1 /// TPSB2 (11721975_s_at) / RFU GSTM3 (11746129_a_at) / Fold change /veh GSTM3 (11746129_a_at) / RFU IL23R (11737362_x_at) / Fold change /veh IL23R (11737362_x_at) / RFU TMEM51 (11727254_a_at) / Fold change /veh TMEM51 (11727254_a_at) / RFU PIWIL2 (11732686_x_at) / Fold change /veh PIWIL2 (11732686_x_at) / RFU ORM1 (11744905_x_at) / Fold change /veh ORM1 (11744905_x_at) / RFU CCDC152 (11743942_at) / Fold change /veh CCDC152 (11743942_at) / RFU ECM1 (11717891_a_at) / Fold change /veh ECM1 (11717891_a_at) / RFU IL23R (11748794_a_at) / Fold change /veh IL23R (11748794_a_at) / RFU TNFAIP8L3 (11732012_x_at) / Fold change /veh TNFAIP8L3 (11732012_x_at) / RFU MBOAT4 (11741988_at) / Fold change /veh MBOAT4 (11741988_at) / RFU 11764193_at / Fold change /veh 11764193_at / RFU TMEM53 (11763286_at) / Fold change /veh TMEM53 (11763286_at) / RFU MAGEB2 (11727129_at) / Fold change /veh MAGEB2 (11727129_at) / RFU TMEM200A (11744735_a_at) / Fold change /veh TMEM200A (11744735_a_at) / RFU CCDC152 (11751479_a_at) / Fold change /veh CCDC152 (11751479_a_at) / RFU FAM211A (11726209_a_at) / Fold change /veh FAM211A (11726209_a_at) / RFU RGS16 (11746705_a_at) / Fold change /veh RGS16 (11746705_a_at) / RFU VCAN (11755009_s_at) / Fold change /veh VCAN (11755009_s_at) / RFU RHOB (11743442_s_at) / Fold change /veh RHOB (11743442_s_at) / RFU RGS16 (11720943_a_at) / Fold change /veh RGS16 (11720943_a_at) / RFU RGS16 (11720944_at) / Fold change /veh RGS16 (11720944_at) / RFU, VPS4B / Fold change vs veh, VPS4B / RFU, CREB1 / Fold change vs veh, CREB1 / RFU, DNAJC13 / Fold change vs veh, DNAJC13 / RFU, GNAQ / Fold change vs veh, GNAQ / RFU, CDK5R1 / Fold change vs veh, CDK5R1 / RFU, ZRANB3 / Fold change vs veh, ZRANB3 / RFU, CUL4A / Fold change vs veh, CUL4A / RFU, CCNY / Fold change vs veh, CCNY / RFU, UFL1 / Fold change vs veh, UFL1 / RFU, COG3 / Fold change vs veh, COG3 / RFU, DIAPH2 / Fold change vs veh, DIAPH2 / RFU, SKA2 / Fold change vs veh, SKA2 / RFU, AFF3 / Fold change vs veh, AFF3 / RFU, LMF1 / Fold change vs veh, LMF1 / RFU, IPO11 / Fold change vs veh, IPO11 / RFU, DFFB / Fold change vs veh, DFFB / RFU, FOXP1 / Fold change vs veh, FOXP1 / RFU, CARD8 / Fold change vs veh, CARD8 / RFU, STRN3 / Fold change vs veh, STRN3 / RFU, ADK / Fold change vs veh, ADK / RFU, RASSF2 / Fold change vs veh, RASSF2 / RFU, WIPF1 / Fold change vs veh, WIPF1 / RFU, LARP1B / Fold change vs veh, LARP1B / RFU, RASA1 / Fold change vs veh, RASA1 / RFU, RB1 / Fold change vs veh, RB1 / RFU, PPFIA1 / Fold change vs veh, PPFIA1 / RFU, MAT2A / Fold change vs veh, MAT2A / RFU, CCT5 / Fold change vs veh, CCT5 / RFU, WDR92 / Fold change vs veh, WDR92 / RFU, CUX1 / Fold change vs veh, CUX1 / RFU, TTC7A / Fold change vs veh, TTC7A / RFU, TMEM135 / Fold change vs veh, TMEM135 / RFU, DEPTOR / Fold change vs veh, DEPTOR / RFU, CPM / Fold change vs veh, CPM / RFU, DNAJB6 / Fold change vs veh, DNAJB6 / RFU, CACNA2D3 / Fold change vs veh, CACNA2D3 / RFU, DTX4 / Fold change vs veh, DTX4 / RFU, TFCP2 / Fold change vs veh, TFCP2 / RFU, GMCL1 /// GMCL1P1 / Fold change vs veh, GMCL1 /// GMCL1P1 / RFU, AEBP2 / Fold change vs veh, AEBP2 / RFU, SNHG1 /// SNORD22 /// SNORD25 /// SNORD26 /// SNORD27 /// SNORD28 /// SNORD29 /// SNORD31 / Fold change vs veh, SNHG1 /// SNORD22 /// SNORD25 /// SNORD26 /// SNORD27 /// SNORD28 /// SNORD29 /// SNORD31 / Fold change (Aza/veh), C12orf56 (ProbeSet 11735607_a_at) / Fold change (ACY-1035/veh), C12orf56 (ProbeSet 11735607_a_at) / Fold change (Aza/veh), FGFR1OP (ProbeSet 11751329_s_at) / Fold change (ACY-1035/veh), FGFR1OP (ProbeSet 11751329_s_at) / Fold change (Aza/veh), VPS36 (ProbeSet 11739960_a_at) / Fold change (ACY-1035/veh), VPS36 (ProbeSet 11739960_a_at) / RFU SYPL1 (11715823_x_at) / Fold change /veh SYPL1 (11715823_x_at) / RFU IGFBP7 (11715501_s_at) / Fold change /veh IGFBP7 (11715501_s_at) / RFU REEP3 (11722064_at) / Fold change /veh REEP3 (11722064_at) / RFU IGLL1 (11728026_x_at) / Fold change /veh IGLL1 (11728026_x_at): dose or concentration left out as unconfirmed
Conditions: MV-4-11 cells, 48 hours

`Nc1ccc(-c2cccs2)cc1NC(=O)c1ccc2c(c1)cc(C1CC1)n2CCN1CCOCC1` [ACY-1035] was tested, and the “Fold change /veh OLFML3 (11715873_a_at)” value was 1.17.
